Here are results for 1 molecule from PMC10605077, “In Vitro and In Silico Antiviral Activity of Di-Halogenated Compounds Derived from L-Tyrosine against Human Immunodeficiency Virus 1 (HIV-1)” (Current Issues in Molecular Biology, 2023).

For orientation: CC50 means the concentration that lowers cell viability or growth by half. One may read the pIC50 as −log10 of the IC50, conventionally taken in molar units. A lower pIC50 goes with a high IC50. A word on the inhibition: it is the change of the read-out against control, counted positive when it falls.

Data set [1] can be described thus: MTT cytotoxicity assay. It is filed as cell-based. As to conditions: human; TZM-bl cells, MTT, 48 h. How it is done: The in vitro cytotoxic effect of the di-halogenated compounds on TZM-bl cells was determined with the MTT (3-(4,5-Dimethylthiazol-2-yl)-2,5-diphenyltetrazolium bromide) assay (Sigma-Aldrich, St. Louis, MO, USA). For this purpose, 1.2 × 10^5 cells/well were seeded in 96-well plates, which were incubated at 37 °C and 5% CO2 for 24 h. DMEM was used as a negative control and serial two-fold dilutions of the compounds were performed at 9.37 to 300 μM in DMEM supplemented with 5% FBS. A total of 100 μL/well of each dilution was added and incubated for 48 h. Subsequently, the cells were washed 2 times with 1X PBS, and 30 μL of MTT solution (2 mg/mL) was added and incubated for 2 h at 37 °C, in a light-protected culture. Then, 100 µL of DMSO was added to dissolve the formazan crystals, placed in shaking for 15 min, and absorbance reading was performed at 570 nm, using the Microplate Spectrophotometer (Thermo Scientific™ Multiskan™ GO, Waltham, MA, USA). Two independent experiments evaluated each experimental condition in quadruplicate (n = 8). The percentage of viability was calculated concerning the absorbance of the controls without a compound (100% viability). The 50% cytotoxic concentration was defined as the concentration of each compound that can reduce cell viability to 50% of the untreated cell control. CC50 was calculated and analyzed with GraphPad Prism version 8.0.1 (GraphPad Software, Inc., San Diego, CA, USA).
In general terms: Tetrazolium dyes change colour on reduction, which living cells bring about.

Data set [2] relates to HIV-1 BaL (R5). The data set is described as follows: Anti-HIV activity in infected TZM-bl cells (luciferase), pre- and post-infection treatment. It is filed as cell-based, Human Immunodeficiency Virus Type 1 (HIV-1). The procedure: (§1) TZM-bl cells were plated in a flat-bottom 96-well plate (Corning Inc., Corning, New York, NY, USA) at the concentration of 1.2 × 10^5 cells/well and incubated for 24 h at 37 °C before the addition or not of each compound at non-cytotoxic concentrations (pre-infection treatment). Then, 1 h later the treatment was removed, and the infection was performed by adding 10 ng/mL of HIV-1IIIB p24 (X4) or 2 ng/mL of HIV-1 BaL (R5). After 3 h, the virus was removed and washed, and the compound dilutions were added again (post-infection treatment). Additionally, three wells were left for the negative control (cells without treatment or infection), the positive control of infection (cells infected with the virus without treatment), and the positive control of inhibition (AZT). Antiviral activity was quantified 48 h after treatment by measuring luciferase activity, which is directly proportional to the number of infectious virus particles in the sample [23]. The luciferase activity was quantified via luminescence emitted by the cells using Bright-GloTM Luciferase Assay System (Promega Corp., Madison, WI, USA), following the manufacturer’s instructions. Briefly, 100 μL of the reagent was added to 100 μL of TZM-bl cells and incubated for at least 2 min, protected from light. Relative light units (RLUs) were measured using the multi-mode plate reader (Thermo ScientificTM VarioskanTM LUX). Each experimental condition was performed in triplicate in two independent experiments (n = 6). The percentage inhibition was calculated as follows: 100 − (RLU of treated cells − RLU of uninfected cells/RLU of infection control − RLU of uninfected cells) × 100.

Data set [3] concerns HIV-1IIIB (X4). Described as above. It is filed as cell-based, Human Immunodeficiency Virus Type 1 (HIV-1). As to conditions: TZM-bl cells. How it is done: as §1
Data set [4] deals with HIV-GFP-VSV-G reporter virus. In words: microbe, parasite or virus in culture. In kind it is cell-based, HIV-1. As to conditions: Human immunodeficiency virus 1, TZM-bl, read-out: percentage inhibition of HIV-GFP-VSV-G replication.
Data set [5] has as its system HIV-1 BaL. In words: Anti-HIV activity in PBMC, intracellular p24 by flow cytometry. As to conditions: 7 days. In kind it is cell-based. How it is done:
In the presence of various concentrations of the most bioactive compounds, 1×10^6 PBMCs previously stimulated with 8 μg/mL of PHA and 50UI/mL of IL-2 were treated for 1 h. […] After spinoculation, cells were washed twice with PBS 1x to remove free virions, and then, fresh medium supplemented with 20 UI/mL of IL-2, with or without the di-halogenated compounds derived from L-Tyrosine dilutions, was added. Cells were plated in 96-well culture plates and incubated for 7 days. […] In addition, antiviral activity was also assessed by measuring intracellular p24 in harvested cells. Briefly, cells were stained with fixable viability dye eFluor 506 (eBioscience, Leicestershire, UK), CD3 (UCHT1; Thermo Scientific, Wilmington, DE, USA), CD4 (RPA-T4; BD Biosciences, San Jose, CA, USA), and p24 PE (KC57; Beckman Coulter, Pasadena, CA, USA), as detailed in the manufacturer’s protocol. Later, cells were washed and resuspended in PBS, and the lecture was measured instead in the LS Fortessa cytometer (BD Biosciences, Franklin Lakes, NJ, USA). Data were analyzed using FlowJo version 10.5.3 (FlowJo, LLC, Ashland, OR, USA).
A general note: Flow cytometry measures light scatter and fluorescence of single cells or particles in a stream.

The subject of data set [6] is HIV-1 BaL. The data set is described as follows: Anti-HIV activity in PBMC, p24 ELISA of supernatant. In kind it is cell-based. As to conditions: 150 μM, supernatant, 7 days.

pIC50: −log10 of the molar value. A value given as a limit tells only on which side of the number the result lay.

In the case of `COc1c(Cl)cc(C[C@@H](C(=O)O)N(C)C)cc1Cl` [TODC-2M], the CC50 at 48 h in data set [1] is more than 300 µM. In addition, the pIC50 was 4.17 in data set [2] (Human immunodeficiency virus 1, BAL, TZM-bl, 48 h, HIV-1 BaL (R5), TZM-bl cells, luciferase) and approximately 4.41 in data set [3] (Human immunodeficiency virus 1, HIV-1IIIB (X4), luciferase, 48 h). The inhibition at 18 µM in data set [2] (Human immunodeficiency virus 1, BAL, 18 µM, TZM-bl cells, read-out: Percentage inhibition of HIV-1 BaL replication) was 38%; in data set [3] (Human immunodeficiency virus 1, TZM-bl, 18 µM, read-out: Percentage inhibition of HIV-1IIIB (X4 strain) replication), -18.5%. In addition, the inhibition at 37 µM in data set [2] (Human immunodeficiency virus 1, BAL, 37 µM, TZM-bl cells, read-out: Percentage inhibition of HIV-1 BaL replication) stood at 46.4%; in data set [3] (Human immunodeficiency virus 1, TZM-bl, 37 µM, read-out: Percentage inhibition of HIV-1IIIB (X4 strain) replication), 40.6%. Moreover, the inhibition at 75 µM was found to be 60.5% in data set [2] (Human immunodeficiency virus 1, BAL, 75 µM, TZM-bl cells, read-out: Percentage inhibition of HIV-1 BaL replication); 62.8% in data set [3] (Human immunodeficiency virus 1, TZM-bl, 75 µM, read-out: Percentage inhibition of HIV-1IIIB (X4 strain) replication); 69.6% in data set [5] (Human immunodeficiency virus 1, BAL, PBMC, 168 h, 75 μM, read-out: inhibition of HIV-1 BaL replication in PBMC, flow cytometry (intracellular p24)). Also, the inhibition at 150 µM is 61.1% in data set [2] (Human immunodeficiency virus 1, BAL, 150 µM, TZM-bl cells, read-out: Percentage inhibition of HIV-1 BaL replication); 99.6% in data set [3] (Human immunodeficiency virus 1, TZM-bl, 150 µM, read-out: Percentage inhibition of HIV-1IIIB (X4 strain) replication); 29% in data set [4]; more than 60% in data set [5] (Human immunodeficiency virus 1, BAL, PBMC, 168 h, 150 µM, read-out: inhibition of HIV-1 BaL replication in PBMC, flow cytometry (intracellular p24)); more than 20% in data set [6] (Human immunodeficiency virus 1, BAL, PBMC, 168 h, read-out: inhibition of HIV-1 BaL in PBMC, extracellular p24 ELISA). In data set [2] (selectivity index against HIV-1 BaL (CC50 and IC50 of Table 3)), this molecule displayed an SI of more than 4.45. Further, the inhibition at 18.75 µM in data set [5] (Human immunodeficiency virus 1, BAL, PBMC, 168 h, 18.75 μM, read-out: inhibition of HIV-1 BaL replication in PBMC, flow cytometry (intracellular p24)) was determined as 50.6%. In addition, the “inhibition of HIV-1 BaL replication in PBMC, flow cytometry (intracellular p24)” value in data set [5] (all concentrations) was “over 50%”. In data set [6], the “inhibition of HIV-1 BaL in PBMC, extracellular p24 ELISA” value worked out at 21.6%.
